Reference: article PMC9686516, “Pharmacokinetic Characteristics of Nebulized Colistimethate Sodium Using Two Different Types of Nebulizers in Critically Ill Patients with Ventilator-Associated Respiratory Infections” (Antibiotics, 2022)
Where two headings read alike, the source gives them in different places. Where a SMILES comes first, the peptide text is derived from it. Bridges are numbered along the chain shown (N, C = ends). [ ]: non-standard residue; d: D form. The star is where a group is joined. X1 = CC[C@H](C)CCCCC(=O)*; Dab = NCC[C@H](N)C(=O)O

Key:
[1] = Colistin pharmacokinetics in epithelial lining fluid (ELF) after nebulized CMS in ventilated VARI patients; type: in vivo, human; details: 2 mIU CMS inhaled; for AUC0–8 h: ELF (mini-BAL, urea-corrected), no systemic CMS, HPLC-fluorescence; for AUC0–8 h / Volume of distribution/ fraction of dose absorbed / Clearance/fraction of dose absorbed / Cmax: NCA; for AUC0–8 h / Volume of distribution/ fraction of dose absorbed / Clearance/fraction of dose absorbed / Cmax / AUC0–24 / Cmin / Tmax / level at 1 h / level at 4 h / level at 6 h / level at 8 h: median (IQR); for Ccolistin over 2 mg/L, frequency of patients / Ccolistin over 4 mg/L, frequency of patients / Volume of distribution/ fraction of dose absorbed / Clearance/fraction of dose absorbed / Cmax / AUC0–24 / Cmin / Tmax / level at 1 h / level at 4 h / level at 6 h / level at 8 h: ELF; for Volume of distribution/ fraction of dose absorbed: dose/(λ × AUCinf); for Clearance/fraction of dose absorbed: dose/AUCinf; for AUC0–24: calculated as AUCinf × 3 (thrice daily), total colistin; for level at 1 h / level at 4 h / level at 6 h / level at 8 h / Kp: human, inhaled or intranasal, 2 mIU; for level at 1 h / level at 4 h / level at 6 h / level at 8 h: epithelial lining fluid (ELF), read-out: Ccolistin,ELF; for level at 1 h: 1 h post-nebulization; for level at 4 h: 4 h post-nebulization; for level at 6 h: 6 h post-nebulization; for level at 8 h: 8 h post-nebulization; for Kp: epithelial lining fluid (ELF)/plasma, ELF/plasma mean concentration ratio, mean (SD), SD
Excerpt: The study population consisted of 24 critically ill adult patients, admitted to the intensive care unit of the First Department of Pulmonology of the National and Kapodistrian University of Athens between June 2014 and November 2017. All patients were intubated and mechanically ventilated, and received inhaled CMS as part of their treatment for VAP or VAT caused by Gram-negative pathogens. Subjects were studied around the first dose of nebulized treatment, which always preceded intravenous treatment, to avoid confounding by colistin (or CMS) reaching the ELF via the systemic circulation. We excluded patients that received a dose different to the institution’s standard of 2 million international units (mIU) (~160 mg) of CMS and patients who were planned to receive intravenous colistin within 8 h of nebulization initiation.
A dose of 2 mIU of CMS (Colistin®, Norma Hellas, Athens, Greece), corresponding to approximately 160 mg CMS or 68 mg colistin-base activity, was nebulized over a 10–30 min period via either VMN (Aeroneb Solo with Aeroneb Pro controller, Aerogen, Galway, Ireland) or generic JN. This was not a randomized trial, and the nebulizer selection was exclusively a matter of availability of VMN consumables in the ICU at the time. The intended dose was dissolved in 4 mL of normal saline 0.9%. The nebulizer was placed at the inspiratory limb of the ventilator circuit, at 15 cm from the Y-piece, and the heat and moisture exchanger was removed. During nebulization, the patients were sedated and ventilated using assist volume controlled mode, with tidal volume set at 8 mL/kg of ideal body weight, a constant squared-wave inspiratory flow, a positive end expiratory pressure (PEEP) of less than or equal to 10 cm H2O, an inspiratory to expiratory time ratio equal to 1, an inspiratory pause of 10%, and a respiratory rate set at 15/min [31].
[…] The catheter was inserted through the endotracheal tube. The lavage was performed with instillation of 2 syringes of 20 mL sterile normal saline at room temperature through the catheter. The aspirate from the first syringe was considered representative of bronchial washing and was, therefore, discarded. The aspirate from the second syringe was collected and centrifuged in frigid centrifuge (3500× g for 10 min at 4 °C) immediately (<2 min) to avoid falsely elevated levels of urea in BAL [34] and CMS hydrolysis to formed colistin. The supernatant liquid was stored in plastic micro test tubes (Safe-lock; Eppendorf AG; Hamburg, Germany) and frozen at –80 °C, until analysis.
Colistin concentrations in plasma (Ccolistin,plasma) and epithelial lining fluid (Ccolistin,ELF) were measured through high performance liquid chromatography (HPLC)-fluorescence analysis.
The samples were rapidly centrifuged, and plasma and BAL supernatant were separated and kept frozen (−80 °C) before analysis, as previously described. An HPLC-RF assay was used for colistin concentration measurements in plasma and BAL fluid samples, based on the method of Li et al., as modified by Markou et al. and Ratjen et al.. Briefly, netilmicin was used as the internal standard and the method consisted of a protein precipitation step with trifluoracetic acid (TFA), followed by colistin derivatization with 9-fluorenylmethyl chloroformate on a solid phase extraction C18 cartridge. The eluted fluid was dried under vacuum and the solid residue was reconstituted in mobile phase for subsequent reversed-phase HPLC with fluorescence detection (excitation: 260 nm; emission: 316 nm). The analytical column was a Phenomenex Luna C18, 3 μm, 50 mm × 3 mm with 100 Å particle size, while the mobile phase consisted of ACN/THF/H2O (80/7.7/12.3%) with a flow rate of 0.5 mL/min. The injection volume was 20 μL. The method was linear at a concentration range of 0.10–4.8 mg/L (R^2 = 0.999). […]

[2] = piglets, cited from earlier work
Method: Nevertheless, in a piglet model of ventilated P. aeruginosa inoculation pneumonia, Lu et al. observed a serum maximum colistin concentration of 1.6 ± 1.4 mg/L after VMN aerosolization of 0.1 mIU/kg of CMS [28]. […] Post-nebulization colistin tissue levels have never been measured in humans; if the results abov ...

Pseudomonas aeruginosa = details: animal thigh and lung infection models; cited from earlier work

In the case of `CC[C@H](C)CCCCC(=O)N[C@@H](CCN)C(=O)N[C@H](C(=O)N[C@@H](CCN)C(=O)N[C@H]1CCNC(=O)[C@H]([C@@H](C)O)NC(=O)[C@H](CCN)NC(=O)[C@H](CCN)NC(=O)[C@H](CC(C)C)NC(=O)[C@@H](CC(C)C)NC(=O)[C@H](CCN)NC1=O)[C@@H](C)O` [colistin] (X1-[Dab]T[Dab][Dab][Dab][dL]L[Dab][Dab]T; lactam 4-C), the “AUC0–8 h” value ([1]; JN, n = 6) is reported as 30.5 (26.0–36.8) mg/L∙h, the “AUC0–8 h” value ([1]; VMN, n = 18) is reported as 28.7 (15.1–68.1) mg/L∙h and the “Ccolistin over 2 mg/L, frequency of patients” value (“Ccolistin over 2 mg/L” below) ([1]; 60 min, JN, n = 6) is reported as 16.7%. The “Ccolistin over 4 mg/L, frequency of patients” value (shortened to “Ccolistin over 4 mg/L”) ([1]; 60 min, JN, n = 6) was 16.7%, the “Ccolistin over 2 mg/L” value ([1]; 240 min, JN, n = 6) was 100% and the “Ccolistin over 4 mg/L” value ([1]; 240 min, JN, n = 6) was 83.3%. The “Ccolistin over 2 mg/L” value ([1]; 240 min, VMN, n = 18) was 50%, the “Ccolistin over 4 mg/L” value ([1]; 240 min, VMN, n = 18) was 27.8% and the “Ccolistin over 2 mg/L” value ([1]; 360 min, JN, n = 6) was 83.3%. The “Ccolistin over 4 mg/L” value ([1]; 360 min, JN, n = 6) was 33.3%, the “Ccolistin over 2 mg/L” value ([1]; 360 min, VMN, n = 18) was 88.9% and the “Ccolistin over 4 mg/L” value ([1]; 360 min, VMN, n = 18) was 83.3%. The “Ccolistin over 2 mg/L” value ([1]; 480 min, JN, n = 6) was 0%, the “Ccolistin over 4 mg/L” value ([1]; 480 min, JN, n = 6) was 0% and the “Ccolistin over 2 mg/L” value ([1]; 480 min, VMN, n = 18) was 41.2%. For the same molecule, the “Ccolistin over 4 mg/L” value ([1]; 480 min, VMN, n = 18) was 17.6%, the “Volume of distribution/ fraction of dose absorbed” value ([1]; JN, n = 6) was 4.5 (3.5–5.1) L and the “Clearance/fraction of dose absorbed” value ([1]; JN, n = 6) was 1.8 (1.5–2.1) L/h. The Cmax ([1]; JN, n = 6) was 7.4 (6.2–10.3) mg/L, the “AUC0–24” value ([1]; JN, n = 6) was 91.5 (78.1–110.3) mg/L∙h and the Cmin ([1]; JN, n = 6) was 1.1 (0.9–1.2) mg/L. For the same molecule, the Tmax ([1]; JN, n = 6) was 4.3 (3.5–4.3) h, the “Volume of distribution/ fraction of dose absorbed” value ([1]; VMN, n = 18) was 1.7 (0.8–5.2) L and the “Clearance/fraction of dose absorbed” value ([1]; VMN, n = 18) was 1.4 (0.8–3.6) L/h. The Cmax ([1]; VMN, n = 18) was 10.4 (4.7–22.6) mg/L, the “AUC0–24” value ([1]; VMN, n = 18) was 86.2 (46.0–185.9) mg/L∙h and the Cmin ([1]; VMN, n = 18) was 0.4 (0.1–0.8) mg/L. For the same molecule, the Tmax ([1]; VMN, n = 18) was 6.5 (6.3–6.6) h, the level at 1 h ([1]; JN, n = 6) was 1200 ng/mL and the level at 1 h ([1]; VMN, n = 18) was 700 ng/mL. It also gave a level at 4 h ([1]; JN, n = 6) of 6420 ng/mL, a level at 4 h ([1]; VMN, n = 18) of 2100 ng/mL and a level at 6 h ([1]; JN, n = 6) of 3300 ng/mL. The level at 6 h ([1]; VMN, n = 18) was 8600 ng/mL, the level at 8 h ([1]; JN, n = 6) was 1300 ng/mL and the level at 8 h ([1]; VMN, n = 18) was 1420 ng/mL. For the same molecule, the Kp ([1]; JN, n = 6) was 4.8, the Kp ([1]; VMN, n = 18) was 5.5 and the “median peak lung tissue concentration” value ([2]; 1 h after the third inhaled dose, upon sacrifice) was 2.8 µg/g. The “serum maximum colistin concentration” value ([2]; VMN aerosolization of 0.1 mIU/kg of CMS, ref 28 (Lu et al.)) was 1.6 ± 1.4 mg/L and the “fAUC/MIC predicting 1-log killing” value (Pseudomonas aeruginosa) was 12.2–22.8.
